Consider three substances from patent US9593146B2, “CD44v6-derived peptides for treating metastasizing cancer” (AMCURE GMBH, priority 2012, dated 2017).

Test [1] has as its system Met and ERK. Description: HGF induced activation of Met and Erk in BSp73ASs6 cells (Western blot). Type of test: cell-based, rat. The settings on record: for HGF induced Met-phosphorylation and Erk signaling: ASs6 cells, peptides with 2000 dalton PEG-chain, 150 nM 10 min before HGF 10 ng/ml (FIG. 10). The method, then:
(§1) Serum-starved cells (24 hours) were induced with the growth factor HGF (10 ng/mL) at 37° C. for 5 minutes. Where indicated, the cells were treated with peptides (100 ng/ml) prior to induction at 37° C. for 10 minutes (100 ng/mL CD44v6 peptide or control peptide). Following the induction with HGF, cells were washed with ice-cold phosphate-buffered saline (PBS). To detect activated Met and Erk, cells were lysed in sodium dodecyl sulfate (SDS)-sample buffer containing 100 mM dithiothreitol (DTT), boiled and subjected to western blot analysis using antibodies against phospho-Met and ERK. The loading controls were performed on the same blot after stripping (62.5 mM Tris, pH 6.8, 2% SDS, 0.8% DTT) by probing with the Met respectively ERK antibody. Blots were stained using the enhanced chemiluminescence system (Thermo Fisher Scientific, Schwerte, Germany). Bands in western blot analysis were quantified with the program Image J (National Institutes of Health).
Rat pancreatic cancer cells BSp73ASs6 (also designated Ass6) were incubated for 10 min at 37° C. with either ctrl-peptides (SEQ ID No.: 15), non-pegylated v6-peptides (SEQ ID No.: 11) and increasing concentrations of the pegylated peptides, namely PEG-rat control peptide and PEG-rat CD44v6 peptide, before induction with HGF (10 ng/ml; 5 min at 37° C.).
Activation of ERK and Met was determined by standard SDS and Western Blotting techniques using a phospho-Met and phospho-Erk specific antibody (phospho-Met clone D16 cell signaling, phospho-Erk p42/44 cell signaling)
ASs6 cells, serum starved for 24 h, were induced with HGF (10 ng/ml) at 37° C. for 5 min. Where indicated, the cells were treated with PEGylated or non-PEGylated peptides before induction at 37° C. for 10 min (150 nM). Cells were washed with phosphate-buffered saline (PBS) and lysed in boiling sodium dodecyl sulfate (SDS)-sample buffer containing 100 mM dithiothreitol (DTT). Subsequently, lysates were subjected to Western blot analysis using antibodies against phosphorylated Mek and Erk (Cell signaling). The Mek and Erk loading control were performed on the same blot, stripped (62.5 mM Tris pH 6.8, 2% SDS, 0.8% DTT) and probed with the Mek and Erk antibodies. Blots were stained using the enhanced chemiluminescence system (Thermo Fisher Scientific).
(A western blot detects proteins with antibodies after separation by electrophoresis.)

A further test relates to HT29 cells. The test is described as follows: HGF induced scattering of HT29 cells. Type of test: cell-based, human. The conditions noted are these: for HGF induced clustering / scattering of HT29 cells (FIG. 11): HGF 10 ng/ml, peptide pre-incubation (Example 2); for HGF induced scattering of HT29 cells: PEGylated peptides 100 ng/ml prior to HGF 50 ng/ml (Example 5, FIG. 11). The method, then: FIG. 17: The human CD44 v6 specific peptides block HGF induced cell scattering and invasion into matrigel. Scattering of HT29 cells was determined in 24-well plates. First, 4.5×10^4 cells were seeded at 37° C.; after 24 h the cells were serum starved for additional 24 h. the cells were either left untreated (control) or later treated with HGF (50 ng/ml) for 24 h. Where indicated the cells were treated with the v6 specific peptide (human v6 5mer, 10mer, 14mer) or control peptide prior to induction with HGF for 30 min. Pictures were made using phase contrast microscopy. Magnification 40×.
A scatter assay was performed additionally. HT29 colon cancer cells were grown in medium containing 10% FCS. One day after seeding, the cells were starved. On the third day, the cells were induced with HGF (10 ng/ml) and pre-incubated with either no peptide, ctrl-peptides (SEQ ID No.: 15), non-pegylated v6-peptides (SEQ ID No.: 11) or the pegylated peptides, namely PEG-rat control peptide and PEG-rat CD44v6 peptide.
Scattering of HT29 cells was determined in 24-well plates. First, 4×10^5 cells were seeded at 37° C.; the cells were either left untreated or 48 h later treated with HGF (50 ng/ml) for 24 h or with PEGylated or non-PEGylated peptides (100 ng/ml) prior to HGF induction for 30 min.

The test system of the next test is BSp73ASs6 cells. The test is described as follows: Rat syngeneic model, subcutaneous BSp73ASs6 tumor, metastasis formation. Type of test: in vivo. As for the experimental part:
In the case of the rat syngeneic model, 1×10^6 pancreatic cells (BSp73AS and its transfectants) were subcutaneously injected into the right posterior flank of the animals. Tumors developed for four weeks. During this time period animals injected with BSp73ASs6 cells expressing Met-shRNA or control-shRNA received doxycycline in the drinking water. At the end of the experiment, primary tumors were isolated. Lungs and axillary lymph nodes were analyzed. The tissues were incubated for 24 h in a zinc-fixative (0.5 g calcium acetate, 5.0 g zinc acetate, 5.0 g zinc chloride, in 1 L 0.1 M Tris pH 7.4) and embedded in paraffin for further analysis. In case of peptide or antibody treatment tumors developed for one week before the first treatment. Where indicated, animals received 200 μg of peptide or antibody per injection three times per week for four weeks. Tumor growth was monitored weekly using a caliper. Animals were killed at day 28 or 30 after start of the treatment.
For histo-morphological analysis paraffin-embedded sections of lungs were stained with hematoxylin and eosin and periodic acid-Schiff (H&E or PAS). Serial sections of the whole tissue blocks were examined by analyzing slices every 20 μm; in each slice, the presence and the extension of the metastatic deposit was assessed, according to the procedure routinely used by pathologists to evaluate the presence of micro-metastases.

The test system of the next test is L3.6pl cells. Description: Human orthotopic model of pancreatic cancer, L3.6pl cells in nude mice. Type of test: in vivo. The settings on record: 20 μg i.p. three times per week for 21 days. As for the experimental part: In the case of the human orthotopic model, L3.6pl pancreatic carcinoma cells (passage 24-26) were suspended in Hank's balanced salt solution (Invitrogen, Karlsruhe, Germany) after trypsinization. The cells were injected orthotopically in the pancreas of male nude mice as described (Bruns C J et al. (1999) Neoplasia 1(1):50-62). Two groups of 15 mice each were injected i.p. 7 days later with either the human v6 peptide respectively rat control peptide (20 μg). For all experiments described and depicted herein either the rat 14mer control peptide or the human 14mer peptide were used. All experiments were then repeated with the rat 5mer control peptide or the human 5mer peptide (N-R-W-H-E, SEQ ID NO: 2). […] The injection was repeated three times per week for 21 days. Two days after the last treatment the animals were killed. […]
A comparison of different CD44v6 peptide derivatives was performed in animals bearing a orthotopic L3.6pl tumor. 10 groups of 5 animals each received a dose of 20 μg peptide per injection three times per week for 3 weeks with the compounds listed in Table 4. Three weeks after starting the treatment the animals were sacrificed and analyzed for macroscopic metastases and tumor volume.

For test [2], the system named is Met and ERK. The test is described as follows: HGF induced activation of Met and ERK in L3.6pl cells (Western blot). Type of test: cell-based, human. The conditions noted are these: L3.6pl cells, peptide prior to induction with 10 ng/ml HGF. As for the experimental part: as §1

As for “PEG-NEWQG [PEG-rat CD44v6 peptide, rat CD44v6 5mer pegylated at the N-terminal]”, the “HGF induced Met-phosphorylation and Erk signaling” value with Met and ERK [1] is “HGF completely failed to induce Met-phosphorylation and to activate Erk signaling”. Further, the “Inhibition of ERK, pegylated vs. non-pegylated peptides” value in the test with Met and ERK [1] (BSp73ASs6 cells) is given as “even more efficient”. For the same substance, the “HGF dependent activation of Met and ERK” value with Met and ERK [1] (pegylated rat 5mer, 10 min pre-incubation, HGF 10 ng/ml 5 min (FIGS. 9, 10)) is “efficient in inhibiting HGF dependent activation of Met and ERK”. Besides, in the test with HT29 cells, the “HGF induced clustering / scattering of HT29 cells (FIG. 11)” value is “lead to dissociation and migration of cells away from these cell cluster”; the “HGF induced scattering of HT29 cells” value is recorded as “strongly inhibited”.
With “NEWQG [rat 5mer, rat CD44v6 5mer peptide]”, in the test on BSp73ASs6 cells (200 μg per injection, intra-tumoral or intravenously three times a week, start after one week of tumor growth), the “metastasis (axillary lymph nodes, lungs)” value is given as “completely inhibited metastasis”. Besides, the “outgrowth of primary tumors” value in the test with BSp73ASs6 cells (same treatment, 28 days) was “not influenced by either treatment”. In the test with BSp73ASs6 cells (same treatment, histological analysis), the “metastasis and micro-metastasis in lung sections (PAS and H&E staining)” value was “neither metastasis nor micro-metastasis could be detected”. Also, the “all experiments of the human orthotopic model repeated with 5mer peptides” value with L3.6pl cells was “The same results as for the 14mer peptides were observed”. The “Phosphorylation of Met and ERK” value in the test with Met and ERK [2] was “had no influence on receptor activation and signal transduction”. Also, in the test with HT29 cells, the “HGF induced clustering / scattering of HT29 cells (FIG. 11)” value was “lead to dissociation and migration of cells away from these cell cluster”.
As for “PEG-NAAAG [PEG-control peptide, pegylated control peptide, 3 essential aa replaced by alanines, reference compound]”, the “HGF induced Met-phosphorylation and Erk signaling” value with Met and ERK [1] is “showed no effect”. Further, the “HGF induced scattering of HT29 cells” value with HT29 cells is “not with PEGylated control peptides”.
